For assay [1], the target named is Lysophosphatidic acid receptor 1 (Homo sapiens, UniProt Q92633). The assay is described as follows: In vitro ability to antagonize LPA-evoked [35S]GTP-gamma-S binding to lysophosphatidic acid receptor 1 in HEK293T cell lines. The class given is functional, cell-based, HEK-293T.
The target of assay [2] is T1, Lysophosphatidic acid receptor 3 (Homo sapiens, UniProt Q9UBY5).
T1 sequence (Q9UBY5 whole entry): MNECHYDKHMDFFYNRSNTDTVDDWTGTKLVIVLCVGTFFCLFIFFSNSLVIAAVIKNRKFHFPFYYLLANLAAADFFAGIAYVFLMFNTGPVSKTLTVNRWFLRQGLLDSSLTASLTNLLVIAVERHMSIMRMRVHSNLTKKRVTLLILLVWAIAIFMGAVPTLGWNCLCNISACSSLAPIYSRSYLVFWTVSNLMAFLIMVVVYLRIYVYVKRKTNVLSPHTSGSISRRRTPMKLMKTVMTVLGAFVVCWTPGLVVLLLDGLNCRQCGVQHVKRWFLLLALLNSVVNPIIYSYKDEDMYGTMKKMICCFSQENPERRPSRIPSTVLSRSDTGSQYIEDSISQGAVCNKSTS
As to the kind of experiment: In vitro antagonism of LPA-evoked [35S]GTP-gamma-S binding to lysophosphatidic acid receptor 3 in HEK293T cell lines. The class given is functional, cell-based, HEK-293T. (In general: Binding of GTPγS marks nucleotide exchange on a G protein.)

Molecules are shown by their SMILES.

Chain of Lysophosphatidic acid receptor 1 (Q92633 whole entry): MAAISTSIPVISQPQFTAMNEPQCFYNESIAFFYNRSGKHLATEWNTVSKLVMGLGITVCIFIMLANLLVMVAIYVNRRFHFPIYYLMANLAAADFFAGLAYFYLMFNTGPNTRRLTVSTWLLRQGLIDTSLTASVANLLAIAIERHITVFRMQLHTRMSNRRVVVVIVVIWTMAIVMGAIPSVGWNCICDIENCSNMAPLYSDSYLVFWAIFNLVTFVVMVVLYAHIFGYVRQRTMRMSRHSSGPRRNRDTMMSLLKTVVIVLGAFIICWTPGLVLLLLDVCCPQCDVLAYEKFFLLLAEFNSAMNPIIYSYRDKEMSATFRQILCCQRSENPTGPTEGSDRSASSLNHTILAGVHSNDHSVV

Turning to `CCCCCCCC/C=C\CCCCCCCC(=O)NC(COP(=O)(O)O)Cc1ccc(OCc2ccccc2)cc1` (stereo not drawn), in assay [1], the IC50 came out at 5.21 µM and the Ki turned out to be 0.137 µM. Also, the IC50 in assay [2] turned out to be 6.45 µM.

As for `CCCCCCCC/C=C\CCCCCCCC(=O)N[C@@H](COP(=O)(O)O)Cc1ccc(OC(=O)c2cc(OC)c(OC)c(OC)c2)cc1`, the figures for the IC50 in assay [1] and in assay [2] were over 10 µM and 0.427 µM, respectively.

In assay [1], `CCCCCCCC/C=C\CCCCCCCC(=O)N[C@@H](COP(=O)(O)O)Cc1ccc(OC2Cc3ccccc3C2)cc1` showed a 50% inhibitory concentration (IC50) of 2.93 µM and a Ki of 0.134 µM. The compound also registered a 50% inhibitory concentration (IC50) in assay [2] of 2.31 µM.

Consider `CCCCCCCC/C=C\CCCCCCCC(=O)N[C@H](COP(=O)(O)O)Cc1ccc(OC(=O)c2ccc(CCCCC)cc2)cc1`, for which the IC50 in assay [1] and in assay [2] was over 10 µM in each case.

In assay [1], `CCCCCCCC/C=C\CCCCCCCC(=O)N[C@@H](COP(=O)(O)O)Cc1ccc(Oc2cc3ccccc3[nH]2)cc1` showed an IC50 of 7 µM and a Ki of 0.073 µM. In addition, in assay [2], the IC50 is 2.63 µM.

Take `CCCCCCCC/C=C\CCCCCCCC(=O)N[C@H](COP(=O)(O)O)Cc1ccc(OCc2ccccn2)cc1`: in assay [1], the IC50 came to 0.604 µM and the Ki was 0.156 µM. In assay [2], the IC50 is 0.94 µM.

For `CCCCCCCCCCCCCCCC(=O)NC(COP(=O)(O)O)Cc1ccc(OCc2cccc(OC)c2)cc1` (stereo not drawn), the IC50 was over 10 µM in assay [1] and 7.22 µM in assay [2].

Consider `CCCCCCCC/C=C\CCCCCCCC(=O)N[C@@H](COP(=O)(O)O)Cc1ccc(OCc2ccccc2)cc1`, for which the IC50 was 2.49 µM in assay [1] and over 10 µM in assay [2].

As for `CCCCCCCC/C=C\CCCCCCCC(=O)N[C@H](COP(=O)(O)O)Cc1ccc(OCc2ccccc2)cc1`, the IC50 in assay [1] and in assay [2] was over 10 µM throughout.

For the compound `C#CCOc1ccc(C[C@@H](COP(=O)(O)O)NC(=O)CCCCCCC/C=C\CCCCCCCC)cc1`, the IC50 in assay [1] and in assay [2] was over 10 µM throughout.

For `CCCCCCCC/C=C\CCCCCCCC(=O)N[C@@H](COP(=O)(O)O)Cc1ccc(OCC2CCCCC2)cc1`, the figures for the IC50 in assay [1] and in assay [2] were over 10 µM and 4.03 µM, respectively.

For `CCCCCCCC/C=C\CCCCCCCC(=O)N[C@@H](COP(=O)(O)O)Cc1ccc(OCCC(C)C)cc1`, the IC50 was over 10 µM in assay [1] and 0.351 µM in assay [2].

Turning to `CCCCCCCC/C=C\CCCCCCCC(=O)N[C@H](COP(=O)(O)O)Cc1ccc(OCC)cc1`, the IC50 in assay [1] was over 10 µM; in assay [2], 6.93 µM.

With `C=CCOc1ccc(C[C@@H](COP(=O)(O)O)NC(=O)CCCCCCC/C=C\CCCCCCCC)cc1`, the 50% inhibitory concentration (IC50) in assay [1] and in assay [2] was over 10 µM throughout.

`CCCCCCCCCCCCCC(=O)NC(COP(=O)(O)O)Cc1ccc(OCc2ccccc2)cc1` (stereo not drawn): the IC50 in assay [1] is 9.03 µM; in assay [2], over 10 µM.

Regarding `CCCCCCCC/C=C\CCCCCCCC(=O)N[C@@H](COP(=O)(O)O)Cc1ccc(OCc2ccccn2)cc1`, in assay [1], the IC50 worked out at 0.109 µM and the Ki was found to be 0.018 µM. This compound gave an IC50 in assay [2] of 0.175 µM.

For the compound `CCCCCCCCCCCCCCCC(=O)NC(COP(=O)(O)O)Cc1ccc(OCc2ccccc2)cc1` (stereo not drawn), the figures for the IC50 in assay [1] and in assay [2] were over 10 µM and 6.84 µM, respectively.

In assay [1], `CCCCCCCC/C=C\CCCCCCCC(=O)N[C@H](COP(=O)(O)O)Cc1ccc(OCc2cccc(OC)c2)cc1` returned an IC50 of 5.66 µM and a Ki of 0.642 µM. The IC50 in assay [2] was determined as 0.642 µM.

Consider `CCCCCCCC/C=C\CCCCCCCC(=O)N[C@@H](COP(=O)(O)O)Cc1ccc(OCc2cccc(OC)c2)cc1`, for which the IC50 is 1.07 µM in assay [1] and 0.0356 µM in assay [2]. Moreover, affinity in assay [1] was put at a Ki of 0.034 µM.

As to `CCCCC/C=C\C/C=C\CCCCCCCC(=O)NC(COP(=O)(O)O)Cc1ccc(OCc2ccccc2)cc1` (stereo not drawn), the IC50 in assay [1] is 4.25 µM; in assay [2] it was over 10 µM.

With `CCCCCCCC(=O)NC(COP(=O)(O)O)Cc1ccc(OCc2ccccc2)cc1` (stereo not drawn), the IC50 in assay [1] is 7.97 µM; in assay [2], over 10 µM.

With `CCCCCCCC/C=C\CCCCCCCC(=O)N[C@H](COP(=O)(O)O)Cc1ccc(Oc2cc3ccccc3[nH]2)cc1`, the IC50 in assay [1] is over 10 µM; in assay [2], 9.26 µM.

For `CCCCCCCC/C=C\CCCCCCCC(=O)N[C@H](COP(=O)(O)O)Cc1ccc(OCCC(C)C)cc1`, the results for the IC50 in assay [1] and in assay [2] were over 10 µM and 5.92 µM, respectively.

Consider `CCCCCCCCCCCCCCCCCC(=O)N[C@@H](COP(=O)(O)O)Cc1ccc(OC2O[C@H](CO)[C@@H](O)[C@H](O)[C@H]2O)cc1` (stereo partly drawn), for which the IC50 in assay [1] and in assay [2] was over 10 µM throughout.

Regarding `CCCCCCCC/C=C\CCCCCCCC(=O)N[C@@H](COP(=O)(O)O)Cc1ccc(OC)cc1`, the IC50 in assay [1] and in assay [2] was over 10 µM each time.

Consider `C#CCCCCOc1ccc(C[C@H](COP(=O)(O)O)NC(=O)CCCCCCC/C=C\CCCCCCCC)cc1`, for which the IC50 in assay [1] is over 10 µM; in assay [2] it was 3.28 µM.

In the case of `CCCCCCCC/C=C\CCCCCCCC(=O)N[C@@H](COP(=O)(O)O)Cc1ccc(OCC)cc1`, the IC50 in assay [1] is over 10 µM; in assay [2] it was 6.41 µM.

Turning to `CCCCCCCC/C=C\CCCCCCCC(=O)N[C@H](COP(=O)(O)O)Cc1ccc(OC(=O)c2ccc(N)cc2)cc1`, the IC50 in assay [1] and in assay [2] was over 10 µM in each case.

The term IC50 denotes the concentration at which inhibition is half-maximal. A higher IC50 goes with a need for much substance. A word on the Ki: it is the dissociation constant of the complex between target and ligand, obtained from inhibition or displacement. Read a low Ki as a stronger hold on the target.

(Values after ChEMBL document CHEMBL1137927, “Initial structure-activity relationships of lysophosphatidic acid receptor antagonists: discovery of a high-affinity LPA1/LPA3 receptor antagonist” (Bioorg Med Chem Lett, 2004).)
